{
  "source": "ChEMBL document CHEMBL4325868",
  "about": "“Design, synthesis and antitubercular activity of 4-alkoxy-triazoloquinolones able to inhibit the M. tuberculosis DNA gyrase” (Eur J Med Chem, 2019)",
  "format_in_all_cases": "functional",
  "key": {"[1]": {"system": "Mycobacterium tuberculosis", "experiment": "Antitubercular activity against ciprofloxacin resistant Mycobacterium tuberculosis isolate 600 after 7 days by resazurin microtiter assay", "details": "isolate 600, 168 h"}, "[2]": {"system": "Mycobacterium tuberculosis", "experiment": "Antitubercular activity against ciprofloxacin resistant Mycobacterium tuberculosis isolate 1670 after 7 days by resazurin microtiter assay", "details": "isolate 1670, 168 h"}, "[3]": {"system": "Mycobacterium tuberculosis", "experiment": "Antitubercular activity against multidrug resistant Mycobacterium tuberculosis isolate 512 after 7 days by resazurin microtiter assay", "details": "isolate 512, 168 h"}, "[4]": {"system": "Mycobacterium tuberculosis", "experiment": "Antitubercular activity against rifampicin/ethambutol resistant Mycobacterium tuberculosis isolate 1726 after 7 days by resazurin microtiter assay", "details": "isolate 1726, 168 h"}, "[5]": {"system": "Mycobacterium tuberculosis", "experiment": "Antitubercular activity against multidrug resistant Mycobacterium tuberculosis isolate 7 after 7 days by resazurin microtiter assay", "details": "isolate 7, 168 h"}, "[6]": {"system": "Mycobacterium tuberculosis", "experiment": "Antitubercular activity against streptomycin/isoniazid/ethambutol resistant Mycobacterium tuberculosis isolate 1097 after 7 days by resazurin microtiter assay", "details": "isolate 1097, 168 h"}, "[7]": {"system": "Mycobacterium tuberculosis", "experiment": "Antitubercular activity against isoniazid resistant Mycobacterium tuberculosis isolate 1358 after 7 days by resazurin microtiter assay", "details": "isolate 1358, 168 h"}, "[8]": {"system": "Mycobacterium tuberculosis", "experiment": "Antitubercular activity against multidrug resistant Mycobacterium tuberculosis isolate 1120 after 7 days by resazurin microtiter assay", "details": "isolate 1120, 168 h"}, "[9]": {"system": "Mycobacterium tuberculosis", "experiment": "Antitubercular activity against streptomycin resistant Mycobacterium tuberculosis isolate 203 after 7 days by resazurin microtiter assay", "details": "isolate 203, 168 h"}, "[10]": {"system": "Mycobacterium tuberculosis", "experiment": "Antitubercular activity against streptomycin resistant Mycobacterium tuberculosis isolate 204 after 7 days by resazurin microtiter assay", "details": "isolate 204, 168 h"}, "[11]": {"system": "Mycobacterium tuberculosis", "experiment": "Antitubercular activity against isoniazid/ethambutol resistant Mycobacterium tuberculosis isolate 368 after 7 days by resazurin microtiter assay", "details": "isolate 368, 168 h"}, "[12]": {"system": "Mycobacterium tuberculosis", "experiment": "Antitubercular activity against rifampicin resistant Mycobacterium tuberculosis isolate 952 after 7 days by resazurin microtiter assay", "details": "isolate 952, 168 h"}, "[13]": {"system": "Mycobacterium tuberculosis", "experiment": "Antitubercular activity against multidrug resistant Mycobacterium tuberculosis isolate 571 after 7 days by resazurin microtiter assay", "details": "isolate 571, 168 h"}, "[14]": {"system": "Mycobacterium tuberculosis", "experiment": "Antitubercular activity against streptomycin resistant Mycobacterium tuberculosis isolate 157 after 7 days by resazurin microtiter assay", "details": "isolate 157, 168 h"}},
  "data": [
    {"smiles": "O=C(O)c1cn(C2CC2)c2cc(N3CCNCC3)c(F)cc2c1=O", "note": "[CIPROFLOXACIN]", "values": [
      {"measurement": "MIC", "setting": "[1]", "result": 4, "unit": "µM"},
      {"measurement": "MIC", "setting": "[2]", "result": 16, "unit": "µM"},
      {"measurement": "MIC", "setting": "[3]", "result": 8, "unit": "µM"}
    ]},
    {"smiles": "COc1cc2c(=O)c(C(=O)O)cn(C)c2c2nnn(C)c12", "values": [
      {"measurement": "MIC", "setting": "[4]", "result": 16, "unit": "µM"},
      {"measurement": "MIC", "setting": "[5]", "result": 4, "unit": "µM"},
      {"measurement": "MIC", "setting": "[1]", "result": 16, "unit": "µM"},
      {"measurement": "MIC", "setting": "[6]", "result": 32, "unit": "µM"},
      {"measurement": "MIC", "setting": "[7]", "result": 16, "unit": "µM"},
      {"measurement": "MIC", "setting": "[8]", "result": 4, "unit": "µM"},
      {"measurement": "MIC", "setting": "[9]", "result": 16, "unit": "µM"},
      {"measurement": "MIC", "setting": "[10]", "result": 8, "unit": "µM"},
      {"measurement": "MIC", "setting": "[11]", "result": 8, "unit": "µM"},
      {"measurement": "MIC", "setting": "[12]", "result": 32, "unit": "µM"},
      {"measurement": "MIC", "setting": "[2]", "result": 16, "unit": "µM"},
      {"measurement": "MIC", "setting": "[13]", "result": 16, "unit": "µM"},
      {"measurement": "MIC", "setting": "[3]", "result": 8, "unit": "µM"},
      {"measurement": "MIC", "setting": "[14]", "result": 8, "unit": "µM"}
    ]}
  ]
}
